Assay results from US20010049372A1, “Antiviral nucleoside analogues” (BioChem Pharma Inc., priority 1998, published 2001).
Read-outs that look alike come from different tables or passages of the source.

Experiments:
HIV-1IIIB = assay: Anti-HIV-1 antiviral assay with HIV-1IIIB in various cell types (RT activity); type: cell-based
Procedure: (§1) ANTIVIRAL ASSAYS. The anti-HIV-1 activity of the compound A (−) were assessed by employing HIV-1IIIB in a variety of cell types as previously described (Gu et al., 1992, 1994, 1999; Rando et al., 1995; Salomon et al., 1994). Briefly, cells were incubated with virus at a multiplicity of infection (MOI) of 0.005 for T cell assays and an MOI of 0.5 for monocytic cell assays for 3 hrs. Unbound virus was then removed by washing the cells, followed by seeding the cells into a 96-well plate. The infected cells were cultured in the presence of a serial concentrations of the test compound for 5-7 days. The anti-HIV-1 efficacy was determined by testing for HIV-1 RT activity or p24 level in the cell culture supernatants. All assays were performed in duplicate. Zidovudine and/or lamivudine were used as controls in each experiment.
Activity of the compound A (−) against HIV-1 in various cells. Anti-HIV-1 activity of the compound A (−) were tested in different types of cells, including human peripheral […] cells (PBMCs), T-cell (MT-2 and MT-4) and monocytic cell (U937) lines. The compound A (−) had submicromolar EC50s against HIV-1IIIB in different types of cells tested (Table 2).

[1] = Cellular toxicity by [3H]-thymidine uptake; type: cell-based, human; conditions: human, Table 14, PHA-stimulated PBMCs, read-out: CC50 (μM) [^3H]TTP incorporation in: PBMC
Procedure: (§2) Cellular toxicity was assessed by [^3H]thymidine uptake (de Muys et al. 1999) and WST-1 staining. In the [^3H]thymidine uptake experiments, Molt-4, HT1080, DU-145, HepG2 and HSF, were plated at a concentration of 1-2×10^3 cells per well (96 well plates). PHA-stimulated PBMCs were cultured at a concentration of 4×10^4 cells per well. Following a 24 hr pre-incubation period, test compounds (10^−4 M to 10^−10 M) were added and the cells were incubated for an additional 72 hrs. [^3H]thymidine was added during the final 18 hr incubation period. The cells were then washed once with PBS, treated with trypsin if the cells were adherent, and resuspended in water (hypotonic lysing of cells). The cellular extract was applied directly to a Tomtec Harvester 96. The 50% cytotoxic concentration (CC50) was determined by comparing the radioactive counts per minute obtained from drug-tested samples to those obtained from the control (untreated) cells.

[2] = Cellular toxicity by [3H]-thymidine uptake; type: cell-based; conditions: human
Procedure: The cellular toxicity of the compounds were assessed on various cells using [^3H]-thymidine uptake. Various cells, including Molt-4, HT1080, DU-145, HepG-2 and HSF, were plated at a concentration of 1-2×10^3 cells per well (96 well plates). After a 24 hr incubation period, 10-fold serial diluted compounds (b 10^−4 M to 10^−10 M) were added to the culture medium and the cells were further incubated for 72 hrs. [^3H]-thymidine was added during the final 18 hr incubation period. After incubation with the [^3H]-thymidine, the cells were washed once with PBS, treated with trypsin if the cells were adherent, and then resuspended in water (hypotonic lysing of cells). The cellular extract was applied directly to a Tomtec Harvester 96. Using this instrument the extracted DNA is adsorbed onto filters, washed and the incorporated [^3H]-thymidine is then counted. The 50% cytotoxic concentration (CC50) was determined by comparing the radioactive counts per minute of the samples in the presence of the compounds against the control. The cellular toxicity of the compounds was also tested by WST-1 staining through assessing proliferation of MT-2, H9, Jurkat, U937, and CBMCs. The established cell lines were cultured in RPMI medium in 96-well plates at a density of 5×10^4 cells/well while CBMCs were plated at a concentration of 0.5×10^6/well. A 10-fold serial diluted (10^−4-10^−7 M) compound was added at day zero. At day 4, the cells were passaged by changing half medium containing appropriately diluted compound. The cell activities were assessed at day 7 using the WST-1 reagent (Boehringer Mannheim) following the protocol provided by the supplier.
as §2

[3] = tested on: Zidovudine^R/Lamivudine^R (2) clinical HIV-1 isolates; assay: Clinical HIV-1 isolates (RT activity); type: cell-based; conditions: Human immunodeficiency virus 1, Zidovudine^R/Lamivudine^R (2 isolates)
Procedure: as §1
(§3) Clinical strains were isolated from PBMCs of HIV-1 infected individuals through co-culture with PBMCs from normal dornors. To determine the RT genotype of the HIV-1 clinical isolates, the proviral DNA was extracted from infected CD4^+ T-cells or PBMCs and the complete RT coding regions were amplified by PCR as previously reported (Gu et al 1992). The PCR product was purified and then directly sequenced using primer RTS (5′-CCAAAAGTTAAACAATGGC-3′) which is located at the 5′ portion of the RT coding region (nucleotide 2603-2621 of HXB2-D coordinates). Antiviral activity was evaluated as described in example 10.

[4] = tested on: Zidovudine^R/Lamivudine^R (3) clinical HIV-1 isolates (second group of Table 7); assay: Clinical HIV-1 isolates (RT activity); type: cell-based; conditions: Human immunodeficiency virus 1, Zidovudine^R/Lamivudine^R (3 isolates)
Procedure: as §1, §3

[5] = tested on: Zidovudine^S/Lamivudine^S (7) clinical HIV-1 isolates; assay: Clinical HIV-1 isolates (RT activity); type: cell-based; conditions: Human immunodeficiency virus 1, Zidovudine^S/Lamivudine^S (7 isolates)
Procedure: as §1, §3

105/A (wt) = assay: Drug-resistant clinical isolates in PBMCs (p24); type: cell-based, HIV-1; conditions: Human immunodeficiency virus 1, PBMC
Procedure: as §1, §3

105/F (zidovudine^R) = assay: Drug-resistant clinical isolates in PBMCs (p24); type: cell-based, HIV-1; conditions: Human immunodeficiency virus 1, PBMC
Procedure: as §1, §3

CCR15 (Lamivudine^R) = assay: Drug-resistant clinical isolates in PBMCs (p24); type: cell-based, HIV-1; conditions: Human immunodeficiency virus 1, PBMC
Procedure: as §1, §3

CCR18 (Lamivudine^R) = assay: Drug-resistant clinical isolates in PBMCs (p24); type: cell-based, HIV-1; conditions: Human immunodeficiency virus 1, PBMC
Procedure: as §1, §3

CCR19 (Lamivudine^R) = assay: Drug-resistant clinical isolates in PBMCs (p24); type: cell-based, HIV-1; conditions: Human immunodeficiency virus 1, PBMC
Procedure: as §1, §3

[6] = Human immunodeficiency virus 1, HIV-1IIIB, MT-2 (4 determinations), RT activity, read-out: EC50
[7] = Human immunodeficiency virus 1, HIV-1IIIB, MT-4 (2 determinations), RT activity, read-out: EC50
[8] = Human immunodeficiency virus 1, MT2, HIV-1IIIB, MT-2 cells, determined by RT activity, read-out: EC50 (μM) ± S.D. in MT-2 cells
[9] = Human immunodeficiency virus 1, PBMC, HIV-1IIIB, PBMCs (3 determinations), RT activity, read-out: EC50
[10] = Human immunodeficiency virus 1, U-937, HIV-1IIIB, U937 (1 determination), RT activity, read-out: EC50
[11] = second group (r9), read-out: EC50 (μM), mean EC50 values
[12] = second group (r10), read-out: EC50 (μM), ranges of EC50s of the isolates in the same group
[13] = read-out: EC50 (μM), mean EC50 values
[14] = read-out: EC50 (μM), ranges of EC50s of the isolates in the same group
[15] = Table 4, read-out: CC50 (μM) [^3H-]TTP incorporation in: HSF
[16] = Table 4, read-out: CC50 (μM) [^3H-]TTP incorporation in: Molt-4

Compound | EC50 (HIV-1IIIB; [6]) | EC50 (HIV-1IIIB; [7]) | EC50 (HIV-1IIIB; [8]) | EC50 (HIV-1IIIB; [9]) | EC50 (HIV-1IIIB; [10]) | CC50 at 72 h [1] | EC50 [3] | EC50 [4, 11] | EC50 [4, 12] | EC50 [5, 13] | EC50 [5, 14] | IC50 (105/A (wt)) | IC50 (105/F (zidovudine^R)) | IC50 (CCR15 (Lamivudine^R)) | IC50 (CCR18 (Lamivudine^R)) | IC50 (CCR19 (Lamivudine^R)) | CC50 at 72 h [2, 15] | CC50 at 72 h [2, 16] | further results
Nc1nc(NC2CC2)c2ncn([C@H]3CO[C@@H](CO)O3)c2n1 [Compound A (-), (−)-(2R,4R)-2-hydroxymethyl-4-(2′-amino-6′-cyclopropylamino-purine-9′-yl)-1,3-dioxolane] | 0.082 µM | 0.14 µM | 0.083 µM | 0.22 µM | 0.82 µM | 286 µM | 0.33 µM | 0.38 µM | 0.13 to 0.51 µM | 0.15 µM | 0.032 to 0.31 µM | 0.6 µM | 0.84 µM | 0.3 µM | 1.3 µM | 1.6 µM | – | – | CC50 at 72 h ([2]; DU-145 cells, Table 14, read-out: CC50 (μM) [^3H]TTP incorporation in: U145): > 500 µM; CC50 at 72 h ([2]; HSF cells, Table 14, read-out: CC50 (μM) [^3H]TTP incorporation in: HSF): 414 µM; CC50 at 72 h ([2]; HT1080 cells, Table 14, read-out: CC50 (μM) [^3H]TTP incorporation in: HT800): > 500 µM; CC50 at 72 h ([2]; HepG2 cells, Table 14, read-out: CC50 (μM) [^3H]TTP incorporation in: HepG2): > 500 µM; CC50 at 72 h ([2]; Molt-4 cells, Table 14, read-out: CC50 (μM) [^3H]TTP incorporation in: Molt4): > 500 µM
Nc1ccn([C@@H]2CS[C@H](CO)O2)c(=O)n1 [Lamivudine, lamivudine] | 0.061 µM | 0.17 µM | 0.061 ± 0.028 µM | 0.035 µM | 0.014 µM | > 500 µM | 4.1 µM | – | ≥ 5.1 µM | 0.23 µM | 0.028 to 0.69 µM | 0.065 µM | 0.17 µM | 95 µM | 300 µM | 95 µM | 400 µM | > 100 µM | CC50 at 72 h ([2]; Table 14, read-out: CC50 (μM) [^3H]TTP incorporation in: HT800): > 500 µM; CC50 at 72 h ([2]; Table 14, read-out: CC50 (μM) [^3H]TTP incorporation in: HepG2): > 100 µM; CC50 at 72 h ([2]; Table 14, read-out: CC50 (μM) [^3H]TTP incorporation in: U145): > 500 µM
Cc1cn([C@H]2C[C@H](N=[N+]=[N-])[C@@H](CO)O2)c(=O)[nH]c1=O [Zidovudine, zidovudine] | 0.0051 µM | 0.015 µM | 0.0051 ± 0.0025 µM | 0.0027 µM | 0.027 µM | 9 µM | 1.15 µM | 0.012 µM | 0.0026 to 0.019 µM | 0.021 µM | 0.0034 to 0.051 µM | 0.0043 µM | 0.23 µM | 0.003 µM | 0.0042 µM | 0.003 µM | > 10 µM | 3 µM | CC50 at 72 h ([2]; Table 4, read-out: CC50 (μM) [^3H-]TTP incorporation in: HT1080): 5 µM; CC50 at 72 h ([2]; Table 4, read-out: CC50 (μM) [^3H-]TTP incorporation in: HepG2): 3 µM; CC50 at 72 h ([2]; Table 4, read-out: CC50 (μM) [^3H-]TTP incorporation in: U-145): > 10 µM
